Measurements reported in ChEMBL document CHEMBL5360534, “Synthetic α-glucosidase inhibitors as promising anti-diabetic agents: Recent developments and future challenges” (Eur J Med Chem, 2023).

How the values were obtained:
[1] = Inhibition of alpha-glucosidase (unknown origin); parameters: species or system Homo sapiens
Homo sapiens [2] = species on record: Homo sapiens; assay: Potency index, ratio of acarbose IC50 to test compound IC50 for inhibition of alpha-glucosidase (unknown origin)
Alpha-glucosidase [3] = biological target: T1, Alpha-glucosidase (Saccharomyces cerevisiae S288c, UniProt P53341+P38158+P07265); assay: Inhibition of Saccharomyces cerevisiae alpha-glucosidase using p-nitrophenyl-alpha-D-glucopyranoside as substrate preincubated for 10 mins followed by substrate addition and measured after 30 mins by absorbance based analysis; format: protein assay
Homo sapiens [4] = species on record: Homo sapiens; assay: Inhibition of alpha-glucosidase (unknown origin) using p-nitrophenylglucopyranoside as substrate at 100 microg/ml preincubated for 10 mins followed by substrate addition and measured by absorbance based analysis relative to control; conditions: dose 100.0 µg/ml
[5] = Inhibition of alpha-glucosidase (unknown origin) using p-nitrophenylglucopyranoside as substrate preincubated for 10 mins followed by substrate addition and measured by absorbance based analysis; parameters: species or system Homo sapiens
[6] = Inhibition of alpha-glucosidase (unknown origin) using p-nitrophenylglucopyranoside as substrate preincubated for 10 mins followed by substrate addition and measured after 30 mins by absorbance based microplate reader analysis; parameters: species or system Homo sapiens
[7] = Inhibition of alpha-glucosidase (unknown origin) using pNPG as substrate preincubated for 20 mins followed by substrate addition and measured after 1 hr by absorbance based analysis; parameters: species or system Homo sapiens
Alpha-glucosidase [8] = biological target: T1, Alpha-glucosidase; assay: Competitive inhibition of Saccharomyces cerevisiae alpha-glucosidase using pNPG as substrate assessed as inhibition constant preincubated for 10 mins followed by substrate addition and measured after 20 mins by spectrophotometric analysis; format: protein assay
Alpha-glucosidase [9] = biological target: T1, Alpha-glucosidase; assay: Inhibition of Saccharomyces cerevisiae alpha-glucosidase using p-nitrophenyl glucopyranoside as substrate preincubated for 10 mins followed by substrate addition and measured after 20 mins by spectrophotometric analysis; format: protein assay
[10] = Inhibition of alpha-glucosidase (unknown origin) using p-nitrophenyl-alpha-D-glucopyranoside as substrate preincubated for 15 mins followed by substrate addition and measured after 30 mins by spectrophotometric analysis; parameters: species or system Homo sapiens
Alpha-glucosidase [11] = biological target: T1, Alpha-glucosidase; assay: Inhibition of Saccharomyces cerevisiae alpha-glucosidase using p-nitrophenyl-alpha-D-glucopyranoside as substrate incubated for 30 mins by spectrophotometric analysis; format: protein assay
Alpha-glucosidase [12] = biological target: T1, Alpha-glucosidase; assay: Inhibition of Saccharomyces cerevisiae alpha-glucosidase; format: protein assay
[13] = biological target: Alpha-glucosidase (Saccharomyces cerevisiae S288c) (UniProt P53341+P38158+P07265); assay: Potency index, ratio of acarbose IC50 to test compound IC50 for inhibition of Saccharomyces cerevisiae alpha-glucosidase; format: protein assay
[14] = Inhibition of alpha-glucosidase (unknown origin) using p-nitrophenyl-alpha-D-glucopyranoside as substrate preincubated for 15 mins followed by substrate addition and measured after 30 mins by absorbance based analysis; parameters: species or system Homo sapiens
[15] = Inhibition of alpha-glucosidase (unknown origin) using pNPG as substrate preincubated for 15 mins followed by substrate addition and measured after 30 mins by microplate reader based analysis; parameters: species or system Homo sapiens
Alpha-glucosidase [16] = biological target: T1, Alpha-glucosidase; assay: Inhibition of Saccharomyces cerevisiae alpha-glucosidase using p-nitrophenyl-alpha-D-glucopyranoside as substrate preincubated for 5 mins followed by substrate addition and measured after 5 mins by absorbance based analysis; format: protein assay
Alpha-glucosidase [17] = biological target: T1, Alpha-glucosidase; assay: Competitive inhibition of Saccharomyces cerevisiae alpha-glucosidase using pNPG as substrate assessed as inhibition constant preincubated for 15 mins followed by substrate addition and measured after 20 mins by spectrophotometric analysis; format: protein assay
Alpha-glucosidase [18] = biological target: T1, Alpha-glucosidase; assay: Inhibition of Saccharomyces cerevisiae alpha-glucosidase using pNPG as substrate preincubated for 10 mins followed by substrate addition and measured after 20 mins by spectrophotometric analysis; format: protein assay
Alpha-glucosidase [19] = biological target: T1, Alpha-glucosidase; assay: Inhibition of Saccharomyces cerevisiae alpha-glucosidase using pNPG as substrate by spectrophotometric analysis; format: protein assay
[20] = Inhibition of alpha-glucosidase (unknown origin) using p-nitrophenyl-alpha-D-glucopyranoside as substrate preincubated for 15 mins followed by substrate addition and measured after 15 mins by absorbance based microplate reader analysis; parameters: species or system Homo sapiens
[21] = Inhibition of alpha-glucosidase (unknown origin) using p-nitrophenyl-alpha-D-glucopyranoside as substrate preincubated for 15 mins followed by substrate addition and measured after 30 mins by multiplate spectrophotometric analysis; parameters: species or system Homo sapiens
[22] = Inhibition of Saccharomyces cerevisiae alpha-glucosidase type I using p-nitrophenyl-alpha-D-glucopyranoside as substrate preincubated for 10 mins followed by substrate addition and measured after 20 mins by spectrophotometric analysis
Alpha-glucosidase [23] = biological target: T1, Alpha-glucosidase; assay: Competitive inhibition of Saccharomyces cerevisiae alpha-glucosidase assessed as inhibition constant; format: protein assay
Alpha-glucosidase [24] = biological target: T1, Alpha-glucosidase; assay: Inhibition of Saccharomyces cerevisiae alpha-glucosidase using p-nitrophenyl-alpha-D-glucopyranoside as substrate preincubated for 10 mins followed by substrate addition and measured after 30 mins by absorbance based microplate reader analysis; format: protein assay
[25] = Inhibition of alpha-glucosidase (unknown origin) using p-nitrophenyl-alpha-D-glucopyranoside as substrate preincubated for 5 mins followed by substrate addition and measured after 5 mins by spectrophotometric analysis; parameters: species or system Homo sapiens
[26] = Inhibition of alpha-glucosidase (unknown origin) assessed as reduction in starch digestion preincubated with alpha-amylase for 20 mins followed by alpha-glucosidase addition and measured after 30 mins by absorbance based analysis; parameters: species or system Homo sapiens
[27] = Inhibition of alpha-glucosidase (unknown origin) using p-nitrophenyl glucopyranoside as substrate preincubated for 10 mins followed by substrate addition and measured after 30 mins by absorbance based analysis; parameters: species or system Homo sapiens
[28] = Inhibition of alpha-glucosidase (unknown origin) using p-nitrophenyl glucopyranoside as substrate preincubated for 10 mins followed by substrate addition and measured after 20 mins by spectrophotometric analysis; parameters: species or system Homo sapiens
[29] = Inhibition of alpha-glucosidase (unknown origin) using p-NPG as substrate preincubated for 5 mins followed by substrate addition and measured after 30 mins by absorbance based analysis; parameters: species or system Homo sapiens
Alpha-glucosidase [30] = biological target: T1, Alpha-glucosidase; assay: Inhibition of Saccharomyces cerevisiae alpha-glucosidase using p-nitrophenyl-alpha-D-glucopyranoside as substrate preincubated for 15 mins followed by substrate addition and measured after 20 mins by spectrophotometric analysis; format: protein assay

## CCOC(=O)CN1C(=O)/C(=N\NC(=O)c2ccc(Cl)cc2)c2ccccc21
[1]
  IC50: 14.5 µM
Homo sapiens [2]
  Ratio IC50: 2

## O=c1oc2ccccc2cc1-c1nn(-c2ccccc2)cc1-c1nc(-c2ccccc2)c(-c2ccccc2)[nH]1
Alpha-glucosidase [3]
  IC50: 2.78 µM

## Oc1ccccc1-c1nn(CNN2CCOCC2)c(=S)o1
Homo sapiens [4]
  inhibition: 82%
[5]
  IC50: 43.1 µM

## O=c1oc2ccc(Br)cc2cc1-c1nn(-c2ccccc2)cc1-c1nc(-c2ccccc2)c(-c2ccccc2)n1-c1ccc(Cl)cc1
Alpha-glucosidase [3]
  IC50: 2.53 µM

## CC(=O)Nc1ccc(-c2[nH]c3ccc(F)cc3c2-c2nc(-c3ccccc3)c(-c3ccccc3)n2-c2ccccc2)cc1
[6]
  IC50: 8.37 µM

## Cc1ccc(S(=O)(=O)n2cc(-c3oc4cc(Br)cc(Br)c4c(=O)c3O)c3ccccc32)cc1
[7]
  IC50: 70.6 µM

## CCOC(=O)c1c(SCc2cn(Cc3cccc([N+](=O)[O-])c3)nn2)nnc(-c2ccccc2)c1-c1ccccc1
Alpha-glucosidase [8]
  Ki: 82 µM
Alpha-glucosidase [9]
  IC50: 85.6 µM

## COc1ccc(-c2cn(C[C@@H](C)Oc3ccc(-c4ccc(C(F)(F)F)cc4)cc3OC)nn2)cc1
[10]
  IC50: 14.2 µM

## O=C(CCCSc1nc2ccccc2s1)Nc1cccc2ccccc12
Alpha-glucosidase [11]
  IC50: 11 µM

## O=c1cc(-c2ccc(OCc3cn(Cc4ccc(Cl)cc4)nn3)cc2)oc2ccccc12
Alpha-glucosidase [12]
  IC50: 24.77 µM
[13]
  Ratio IC50: 35

## O=C1Nc2cc(Br)ccc2/C1=N/Nc1nc(-c2ccc(Br)cc2)cs1
[14]
  IC50: 20.8 µM

## O=c1cc(-c2ccc(OCc3cn(Cc4cc(Cl)ccc4Cl)nn3)cc2)oc2ccccc12
Alpha-glucosidase [12]
  IC50: 24.37 µM
[13]
  Ratio IC50: 35

## N#Cc1ccc2[nH]c(-c3nnc(Nc4ccc(Cl)c(Cl)c4)s3)cc2c1
Alpha-glucosidase [3]
  IC50: 0.95 µM

## Nc1ccccc1-c1nn(CNN2CCOCC2)c(=S)o1
Homo sapiens [4]
  inhibition: 85%
[5]
  IC50: 53.6 µM

## Oc1ccc(/C=N\c2nnc(-c3ccc(O)cc3)o2)cc1
[15]
  IC50: 0.3 µM

## Oc1ccc(-c2nc3ncccc3[nH]2)cc1O
Alpha-glucosidase [16]
  IC50: 13.5 µM

## Cc1ccc(C(c2c(N)c3ccccc3oc2=O)c2c(N)c3ccccc3oc2=O)cc1
Alpha-glucosidase [17]
  Ki: 22.4 µM
Alpha-glucosidase [18]
  IC50: 20 µM

## O=c1c2ccccc2nc(SCc2cn(Cc3ccc(Br)cc3)nn2)n1CCc1ccccc1
Alpha-glucosidase [19]
  IC50: 181 µM
Alpha-glucosidase [9]
  IC50: 181 µM

## COc1cc2oc(=O)ccc2cc1-c1c(O)cc(O)c2c1O/C(=C\c1ccccc1)C2=O
Alpha-glucosidase [11]
  IC50: 3.55 µM

## COc1cc2c(=O)c(-c3ccccc3)coc2cc1O/C(=C\N(C)C)C(=O)c1ccc(Cl)cc1
[20]
  IC50: 890 µM

## Clc1ccc(C2=NOC(c3ccccc3)N2c2ccc(Cl)cc2)cc1 (stereo unspecified)
Alpha-glucosidase [8]
  Ki: 122 µM
Alpha-glucosidase [18]
  IC50: 215 µM

## CCOC(=O)CN1C(=O)/C(=N\NC(=O)c2ccccc2Cl)c2ccccc21
[1]
  IC50: 13.2 µM
Homo sapiens [2]
  Ratio IC50: 2

## Cc1ccc(-n2cc(/C=N/NC(=O)Nc3ccccc3)c(-c3ccc([N+](=O)[O-])cc3)n2)cc1
Alpha-glucosidase [17]
  Ki: 87 µM
Alpha-glucosidase [9]
  IC50: 65.1 µM

## CCCCCCSc1nc2ccccc2n1CC(=O)NN1C(=O)CSC1c1ccc(C=O)cc1 (stereo unspecified)
[21]
  IC50: 5.69 µM

## O=[N+]([O-])c1ccc(-c2nn(-c3ccccc3)cc2-c2nc(-c3ccccc3)c(-c3ccccc3)n2-c2ccc(Br)cc2)cc1
[22]
  IC50: 33.6 µM

## Cc1ccc(-c2nc3c(C(=O)Nc4ccccc4)c(Nc4ccccc4)nn3c(-c3ccc(Br)cc3)c2N)cc1
Alpha-glucosidase [17]
  Ki: 12 µM
Alpha-glucosidase [9]
  IC50: 15.2 µM

## O=C(/C=C\c1ccc(OCc2cn(Cc3ccc(O)cc3)nn2)cc1)NCCc1c[nH]c2ccccc12
Alpha-glucosidase [12]
  IC50: 65 µM
Alpha-glucosidase [23]
  Ki: 64 µM

## Cc1cc2nc(-c3ccc(C(=O)NNC(=S)Nc4ccc([N+](=O)[O-])cc4)cc3)[nH]c2cc1C
Alpha-glucosidase [24]
  IC50: 35.83 µM

## O=S(=O)(NCCc1c[nH]c2ccccc12)c1cc(F)ccc1Cl
[25]
  IC50: 1.6 µM

## CCCCCCSc1nc2ccccc2n1CC(=O)NN1C(=O)CSC1c1ccc([N+](=O)[O-])cc1 (stereo unspecified)
[21]
  IC50: 5.22 µM

## CCCCCCSc1nc2ccccc2n1CC(=O)NN1C(=O)CSC1c1ccc(O)c(OC)c1 (stereo unspecified)
[21]
  IC50: 10.2 µM

## CCn1cc(C(=O)CC(c2ccc3ccccc3c2)C2C(=O)N(C)C(=O)N(C)C2=O)c2ccccc21 (stereo unspecified)
Alpha-glucosidase [19]
  IC50: 13.02 µM

## O=C(Cn1c(-c2ccc(Cl)cc2)nc2ccccc2c1=O)N/N=C/c1cn(-c2ccccc2)nc1-c1ccc(Br)cc1
Alpha-glucosidase [17]
  Ki: 56 µM
Alpha-glucosidase [9]
  IC50: 60.5 µM

## Oc1ccc(/C=N/c2nnc(-c3ccc(Cl)cc3)s2)cc1
[25]
  IC50: 2.3 µM

## Cc1ccc(NC(=O)C(C)Sc2nnc(-c3ccc(Cl)cc3)o2)cc1C (stereo unspecified)
Alpha-glucosidase [24]
  IC50: 52.63 µM

## C=c1[nH]c(=O)s/c1=C/c1ccc(Oc2nc3ccccc3n2Cc2ccc(Cl)cc2)cc1
[26]
  IC50: 0.54 µM

## O=C(COc1ccc(-c2nc(-c3ccccc3)c(-c3ccccc3)[nH]2)cc1)Nc1cccc(Br)c1
Alpha-glucosidase [17]
  Ki: 86.3 µM
Alpha-glucosidase [18]
  IC50: 90 µM

## Fc1ccc(-c2cn3c(Cc4n[nH]c(=S)n4-c4cccc5ccccc45)csc3n2)cc1
[1]
  IC50: 4.54 µM
Homo sapiens [2]
  Ratio IC50: 47

## O=C(N/N=C/c1ccc(O)c(O)c1)c1cc2ccccc2oc1=O
Alpha-glucosidase [16]
  IC50: 1.1 µM

## FC(F)(F)c1cccc(-c2nnc(-c3c[nH]c4ncccc34)o2)c1
[27]
  IC50: 0.46 µM

## Cc1ccc2c(c1)/C(=N/Nc1nc(-c3ccc(O)cc3)cs1)C(=O)N2Cc1cccc(F)c1
[10]
  IC50: 5.36 µM

## COc1cc(-c2nc3ccccc3[nH]2)ccc1OCc1cn(CC(=O)Nc2cnc(-c3ccccc3)s2)nn1
[28]
  IC50: 6.31 µM

## COc1ccccc1N1C(=O)/C(=C\c2ccc(F)cc2)S/C1=N\NC(=O)c1cc2ccccc2oc1=O
[29]
  IC50: 0.09 µM

## COc1ccc(/C(CSc2nc3ccccc3[nH]2)=N/N=C/c2ccc(OC)cc2O)cc1
[25]
  IC50: 2.2 µM

## CN1CCN(c2ccc3[nH]c(-c4ccc(O)cc4)nc3c2)CC1
Alpha-glucosidase [30]
  IC50: 2.25 µM

## Nc1nnc(-c2ccc(O)cc2)s1
[25]
  IC50: 2.7 µM

## O=C1Nc2ccc(Cl)cc2/C1=C\c1ccc(-c2nnc(-c3cc(O)cc(O)c3)o2)cc1
[15]
  IC50: 1.25 µM

## Oc1ccc(-c2nc3cc(N4CCOCC4)ccc3[nH]2)cc1
Alpha-glucosidase [30]
  IC50: 3.4 µM

## O=C1NC(=S)S/C1=C\c1ccc(Nc2nc3ccccc3o2)cc1
[26]
  IC50: 9.48 µM

## O=C(COc1ccc(C(c2c(O)c3ccccc3oc2=O)c2c(O)c3ccccc3oc2=O)cc1)Nc1ccc(Br)cc1
Alpha-glucosidase [12]
  IC50: 41.73 µM
Alpha-glucosidase [23]
  Ki: 44 µM
[13]
  Ratio IC50: 18

## O=c1oc2ccccc2cc1-c1nn(C(Nc2ccccc2Oc2ccccc2NC(c2cccc(Br)c2)n2nc(-c3cc4ccccc4oc3=O)oc2=O)c2cccc(Br)c2)c(=O)o1 (stereo unspecified)
[29]
  IC50: 0.07 µM

## O=[N+]([O-])c1ccccc1/C(CSc1nnc2c(n1)[nH]c1ccccc12)=N\c1nnc(-c2cccc(O)c2)s1
[1]
  IC50: 2.5 µM
Homo sapiens [2]
  Ratio IC50: 15
